Molecules are shown by their SMILES. Where only a bound is given, the exact number is not on record here.

The target of one data set is Phosphodiesterase 4 (Homo sapiens, UniProt P27815+Q08499+Q07343+Q08493). The format is functional, cell-based. As to conditions: u-937.
The target of data set [1] is T1, Muscarinic acetylcholine receptor M3 (Homo sapiens, UniProt P20309). Description: biochemical. The format is cell-based, CHO.
Target sequence in this assay (P20309 whole entry): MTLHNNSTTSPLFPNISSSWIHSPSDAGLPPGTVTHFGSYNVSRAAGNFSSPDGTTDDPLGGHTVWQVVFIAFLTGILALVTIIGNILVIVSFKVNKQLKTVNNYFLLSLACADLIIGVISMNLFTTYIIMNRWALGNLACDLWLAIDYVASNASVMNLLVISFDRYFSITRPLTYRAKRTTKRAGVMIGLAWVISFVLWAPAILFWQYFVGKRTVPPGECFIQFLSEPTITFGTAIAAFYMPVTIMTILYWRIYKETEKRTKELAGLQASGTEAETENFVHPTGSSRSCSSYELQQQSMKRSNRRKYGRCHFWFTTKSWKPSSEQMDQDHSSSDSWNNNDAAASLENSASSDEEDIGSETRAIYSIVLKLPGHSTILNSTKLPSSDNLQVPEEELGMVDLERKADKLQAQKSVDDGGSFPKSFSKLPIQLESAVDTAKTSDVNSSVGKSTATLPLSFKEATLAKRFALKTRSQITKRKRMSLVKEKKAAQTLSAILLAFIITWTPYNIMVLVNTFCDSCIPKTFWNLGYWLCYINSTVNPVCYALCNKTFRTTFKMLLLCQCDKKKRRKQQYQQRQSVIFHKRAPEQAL
For data set [2], the target named is T1, Muscarinic acetylcholine receptor M3. Description: Displacement of [3H]methylscopolamine from recombinant human muscarinic M3 receptors expressed in CHO cells at 10 um. The format is cell-based. (Loss of bound radioactivity is the signal in a displacement assay; it reports binding, not function.)
Target sequence in this assay (P20309 whole entry, looked up): as the sequence (P20309 whole entry) above
For data set [3] the following is noted: buffer, pH 7.4.

Description for Phosphodiesterase 4: Inhibition of PDE4 activity in U937 cells
Description for physchem: Dissociation constant, pKa of the compound

In general, IC50 refers to the concentration that gives 50% inhibition. Low readings indicate higher potency, high ones lower potency. As a reminder, the Ki is the dissociation constant of the complex between target and ligand, obtained from inhibition or displacement. A word on the pKa: it is the negative logarithm of the acid dissociation constant. The low end stands for a stronger acid or weaker base, the high end for a weaker acid or stronger base. In turn, `c1c(NC2CC2)nc(C2CC2)nc1N1CCCCCC1` showed an IC50 on Phosphodiesterase 4 of 400 nM. This molecule yielded a Ki in data set [1] of 63 nM. Also, in the data set “physchem”, the pKa was 8.03.
`Cc1c(NC2CC2)nc(Cc2ccccc2)nc1N1CCCCCC1`: on Phosphodiesterase 4, the IC50 is 1000 nM. The molecule also gave a Ki in data set [1] of 501 nM.
Regarding `Fc1c(NC2CC2)nc(C2CC2)nc1N1CCCCCC1`, the IC50 on Phosphodiesterase 4 amounted to 630 nM. In addition, in data set [1], the Ki came out at 251 nM. Further, the pKa in the data set “physchem” stood at 6.44.
In general, inhibition refers to the percentage by which the read-out fell short of the control. In the case of `Cc1c(NC2CC2)nc(C2CC2)nc1N1CCOCC1`, the IC50 on Phosphodiesterase 4 was 790 nM. Also, the inhibition in data set [2] was under 50%. Also, the LogK-IAMex in data set [3] stood at 1.45.
On Phosphodiesterase 4, `C=C1CCN(c2nc(C3CC3)nc(NC3CC3)c2C)CC1` gave an IC50 of 400 nM. Besides, in data set [1], the Ki was found to be 79 nM. The molecule further displayed a LogK-IAMex in data set [3] of 2.7.
The molecule `Cc1c(NC2CC2)nc(C2CC2)nc1N1CC2CCC(C2)C1` gave an IC50 against Phosphodiesterase 4 of 500 nM. Further, in data set [1], the Ki worked out at 6.3 nM. Further, the LogK-IAMex in data set [3] was 3.11.
For the molecule `Cc1c(NC2CCCCC2)nc(C2CC2)nc1NC1CC1`, the IC50 against Phosphodiesterase 4 came out at 2500 nM. Besides, the affinity in data set [1] corresponds to a Ki of 316 nM. Also, the LogK-IAMex in data set [3] is recorded as 2.71.
The matching figures for `Cc1c(NC2CC2)nc(C2CC2)nc1N1CCC(C(F)(F)F)CC1`: 2000 nM, 100 nM and 2.94.
Take `Cc1c(NC2CC2)nc(C2CC2)nc1N(C)Cc1ccccc1`: the IC50 against Phosphodiesterase 4 stood at 400 nM. Also, affinity in data set [1] was put at a Ki of 251 nM. Besides, the LogK-IAMex in data set [3] was determined as 2.7.
Taken in the same sequence, the figures for `Cc1c(NCc2c(F)cccc2F)nc(C2CC2)nc1NC1CC1` were 2000 nM, 63 nM and 2.38.
`Cc1c(NCc2ccccc2)nc(C2CC2)nc1NC1CC1` returned an IC50 on Phosphodiesterase 4 of 4000 nM. The affinity in data set [1] corresponds to a Ki of 200 nM. In data set [3], this molecule yielded a LogK-IAMex of 2.36.
Regarding `Cc1c(NC2CC2)nc(C2CC2)nc1N1CCC(C)(C)CC1`, on Phosphodiesterase 4, the IC50 came to 320 nM. For the same molecule, the Ki in data set [1] was found to be 25 nM. Moreover, the LogK-IAMex in data set [3] stood at 3.02.
At Phosphodiesterase 4, `C[C@@H]1C[C@H]1c1nc(NC2CC2)cc(N2CCCCCC2)n1` registered an IC50 of 2500 nM. Moreover, in data set [1], the affinity, expressed as Ki, was 398 nM.
Molecule `Cc1c(NCCc2cccs2)nc(C2CC2)nc1NC1CC1` displayed an IC50 at Phosphodiesterase 4 of 2500 nM. The molecule also gave a Ki in data set [1] of 79 nM. In data set [3], this molecule gave a LogK-IAMex of 2.57.
`Cc1c(NC2CCCCCC2)nc(C2CC2)nc1NC1CC1`: the IC50 on Phosphodiesterase 4 was determined as 2000 nM. In addition, the Ki in data set [1] turned out to be 398 nM. In data set [3], this molecule came in with a LogK-IAMex of 2.98.
The molecule `Cc1c(NC2CC2)nc(C2CC2)nc1N1CCC(CO)CC1` registered an IC50 against Phosphodiesterase 4 of 630 nM. The molecule further displayed a Ki in data set [1] of 501 nM. The same molecule returned a LogK-IAMex in data set [3] of 1.57.
Molecule `Brc1c(NC2CC2)nc(C2CC2)nc1N1CCCCCC1` showed a half-maximal inhibitory concentration (IC50) against Phosphodiesterase 4 of 630 nM. In data set [1], this molecule returned a Ki of 316 nM. The molecule further had a pKa in “physchem” of 6.21.
Regarding `Cc1c(NC2(C)CC2)nc(C2CC2)nc1N1CCCCCC1`, on Phosphodiesterase 4, the IC50 worked out at 6300 nM. For the same molecule, the Ki in data set [1] is 10 nM.
On Phosphodiesterase 4, `Cc1c(NC2CC2)nc(C2CC2)nc1N1CCC2(CCCC2)CC1` yielded a half-maximal inhibitory concentration (IC50) of 790 nM. Further, the Ki in data set [1] was found to be 158 nM. Further, the LogK-IAMex in data set [3] worked out at 3.66.
As to `Nc1c(NC2CC2)nc(C2CC2)nc1N1CCCCCC1`, the IC50 against Phosphodiesterase 4 turned out to be 790 nM. Also, the Ki in data set [1] worked out at 79 nM. Further, the pKa in the data set “physchem” was 7.15.
`Cc1c(NC2CC2)nc(C2CC2)nc1N1CCc2ccccc2C1` registered an IC50 on Phosphodiesterase 4 of 500 nM. The molecule also registered a Ki in data set [1] of 316 nM. The LogK-IAMex in data set [3] is reported as 2.97.
`CCC1CCN(c2nc(C3CC3)nc(NC3CC3)c2C)CC1` gave a half-inhibitory concentration (IC50) on Phosphodiesterase 4 of 630 nM. This molecule also returned an inhibition constant (Ki) in data set [1] of 50 nM. Also, in data set [3], the LogK-IAMex is listed as 3.21.
Turning to `Cc1c(NC2CC2)nc(C(C)C)nc1N1CCCCCC1`, the concentration for half-maximal inhibition (IC50) on Phosphodiesterase 4 amounted to 2500 nM. The molecule also registered a Ki in data set [1] of 25 nM.
In turn, `Cc1c(NC2CC2)nc(C2CC2)nc1N1CC=CCC1` registered a half-inhibitory concentration (IC50) at Phosphodiesterase 4 of 790 nM. Moreover, the inhibition constant (Ki) in data set [1] is 32 nM. In data set [3], this molecule returned a LogK-IAMex of 2.37.
As to `Cc1c(NC2CC2)nc(C2CC2)nc1N1CCC(F)(F)CC1`, the IC50 on Phosphodiesterase 4 amounted to 400 nM. In data set [1], this molecule came in with a Ki of 50 nM. Besides, the LogK-IAMex in data set [3] is recorded as 2.5.
Consider `Cc1c(NC2CC2)nc(C2CC2)nc1N1CCC(C)CC1`, for which the IC50 against Phosphodiesterase 4 is 630 nM. Besides, the Ki in data set [1] turned out to be 16 nM. The molecule also showed a LogK-IAMex in data set [3] of 2.8.
Regarding `C1CCCN(c2nc(C3CC3)nc3c2CCCN3)CC1`, the IC50 on Phosphodiesterase 4 worked out at 500 nM. In data set [1], this molecule showed a Ki of 50 nM.
`CCc1c(NC2CC2)nc(C2CC2)nc1N1CCSCC1` had an IC50 on Phosphodiesterase 4 of 1600 nM. In data set [1], this molecule displayed a Ki of 100 nM. Also, in the data set “physchem”, the pKa is 6.78.
At Phosphodiesterase 4, `Cc1c(NCc2cccs2)nc(C2CC2)nc1NC1CC1` displayed a 50% inhibitory concentration (IC50) of 6300 nM. Moreover, the Ki in data set [1] amounted to 126 nM. The molecule further came in with a LogK-IAMex in data set [3] of 2.21.
`Cc1c(NC2CC2)nc(C2CC2)nc1N1CCSCC1`: at Phosphodiesterase 4, the half-inhibitory concentration (IC50) turned out to be 320 nM. Also, in data set [1], the Ki turned out to be 79 nM. This molecule also displayed a LogK-IAMex in data set [3] of 2.14. The molecule further displayed a pKa in “physchem” of 6.99.
`Cc1c(NC2CC2)nc(CC2CC2)nc1N1CCCCCC1`: the half-inhibitory concentration (IC50) on Phosphodiesterase 4 was found to be 2000 nM. The Ki in data set [1] was 126 nM.
`Cc1c(NC2CC2)nc(C2CC2)nc1N1CCCCCCC1`: the concentration for half-maximal inhibition (IC50) against Phosphodiesterase 4 came to 1600 nM. The molecule further gave a Ki in data set [1] of 16 nM. For the same molecule, in data set [3], the LogK-IAMex is reported as 3.05.
`Cc1c(NC2CC2)nc(C2CC2)nc1N1CCC(Cc2ccccc2)CC1` showed an IC50 at Phosphodiesterase 4 of 2000 nM. The Ki in data set [1] was 790 nM. This molecule also displayed a LogK-IAMex in data set [3] of 3.89.
`Cc1c(NC2CC2)nc(C2CC2)nc1N1CCCC1`: the concentration for half-maximal inhibition (IC50) against Phosphodiesterase 4 came to 1600 nM. In data set [1], this molecule gave a Ki of 100 nM. Moreover, in data set [3], the LogK-IAMex is 2.36.
At Phosphodiesterase 4, `Cc1c(NC2CC2)nc(C2CCCC2)nc1N1CCCCCC1` had an IC50 of 1260 nM. The molecule also came in with a Ki in data set [1] of 79 nM.
In turn, `Fc1c(NC2CC2)nc(C2CC2)nc1N1CCSCC1` came in with an IC50 at Phosphodiesterase 4 of 250 nM. Moreover, in data set [2], the inhibition was under 50%. The molecule also returned a pKa in the data set “physchem” of 5.27.
As to `Cc1c(NC2CC2)nc(C2CC2)nc1N1CCC(O)CC1`, the IC50 at Phosphodiesterase 4 is 4000 nM. This molecule also registered a Ki in data set [1] of 501 nM. In data set [3], the LogK-IAMex stood at 1.2.
For `Cc1c(NC2CC2)nc(C2CCC2)nc1N1CCCCCC1`, the IC50 against Phosphodiesterase 4 was determined as 2000 nM. The same molecule came in with a Ki in data set [1] of 40 nM.
Taken in the same sequence, the figures for `Cc1c(NC2CCC2)nc(C2CC2)nc1N1CCCCCC1` were 2000 nM and 7.9 nM.
Turning to `Cc1c(NC2CC2)nc([C@@H]2C[C@H]2C)nc1N1CCCCCC1`, the half-inhibitory concentration (IC50) against Phosphodiesterase 4 was determined as 3200 nM. The same molecule displayed a Ki in data set [1] of 32 nM.
At Phosphodiesterase 4, `Cc1c(N[C@H]2C[C@@H]2C)nc(C2CC2)nc1N1CCCCCC1` showed an IC50 of 7900 nM. In data set [1], the affinity, expressed as Ki, was 7.9 nM.
As for `C1CCCN(c2nc(C3CC3)nc3c2CCCCN3)CC1`, the IC50 against Phosphodiesterase 4 was 1300 nM. For the same molecule, the Ki in data set [1] came to 10 nM.
`Cc1c(NC2CC2)nc(C2CC2)nc1N1CCC(=O)CC1` returned an IC50 at Phosphodiesterase 4 of 3200 nM. This molecule returned an inhibition constant (Ki) in data set [1] of 3200 nM. In data set [3], the LogK-IAMex was found to be 1.35.
In turn, `Cc1c(NC2CC2)nc(C2CC2)nc1N1CCCCC1` had an IC50 on Phosphodiesterase 4 of 500 nM. Also, the affinity in data set [1], expressed as Ki, was 13 nM. Moreover, the LogK-IAMex in data set [3] is 2.5.
As to `COc1c(NC2CC2)nc(C2CC2)nc1N1CCSCC1`, the IC50 against Phosphodiesterase 4 is 2500 nM. Affinity in data set [1] was put at a Ki of 398 nM. In the data set “physchem”, this molecule came in with a pKa of 6.47.
`O=[N+]([O-])c1c(NC2CC2)nc(C2CC2)nc1N1CCCCCC1` had an IC50 against Phosphodiesterase 4 of 1260 nM. In data set [1], this molecule had a Ki of 2510 nM. This molecule yielded a pKa in “physchem” of 4.64.
